Assays:
[1] = NOVARTIS: Cytotoxicity against human hepatocellular carcinoma cell line (Huh7); format: toxicity, cell-based, Huh-7; conditions: Huh7 cells (hepatocellular carcinoma cell line)
[2] = tested on: Plasmodium falciparum; experiment: NOVARTIS: Inhibition of Plasmodium falciparum W2 (drug-resistant) proliferation in erythrocyte-based infection assay; format: functional, organism-based; conditions: Plasmodium falciparum, W2; read-out: EC50
[3] = tested on: Plasmodium falciparum; experiment: NOVARTIS: Inhibition of Plasmodium falciparum 3D7 (drug-susceptible) proliferation in erythrocyte-based infection assay; format: functional, organism-based; conditions: Plasmodium falciparum, 3D7

SMILES	CC50 [1] [nM]	EC50 [2] [nM]	EC50 [3] [nM]
C/N=C(\N)Nc1nc(C)c2cc(OC)ccc2n1	> 10000	725	662
O=C(C[n+]1ccc(/C=N/O)cc1)NC12CC3CC(CC(C3)C1)C2	42200	3070	> 12500
Nc1ccc(Nc2ccc(N)cc2)cc1	> 10000	711	319
FC(F)(F)c1ccc(Nc2nnnc3ccccc23)cc1	> 100000	7230	7720
NC(=O)c1ccc2[nH]c3c(c2c1)CCCC3	> 100000	> 7160	> 12500
CCCCCCN(C(=O)c1ccc(CCCCC)cc1)C(CC)c1nc2ccccc2c(=O)n1-c1ccccc1OC (configuration not stated)	> 10000	699	1030
Clc1ccc(CCNC2CCN(CCc3ccccc3)CC2)cc1	9600	696	150
O=C(CC1SC(=Nc2ccccc2)NC1=O)Nc1cc(Cl)ccc1Cl (configuration not stated)	> 100000	> 7080	> 12500
COC(=O)c1ccc(Cn2cc(C=O)c3ccccc32)o1	> 10000	> 707	> 1250
CC(C)CNc1nc(NCCCN2CCCCC2C)ncc1C(=O)NCCc1ccccc1 (configuration not stated)	> 10000	729	383
c1ccc2c(NCCNc3c4ccccc4nc4ccccc34)c3ccccc3nc2c1	11800	858	82.9
CC(C)CNC(=O)c1cnc(NCCc2ccncc2)nc1NCCc1ccccc1	> 10000	728	809
CCN1CCN(C(=O)CS(=O)(=O)Cc2nc(-c3cccc(OC)c3)oc2C)CC1	> 10000	> 712	> 1250
C=C1[C@@H](C)[C@H]2[C@H](Cc3ccccc3)NC(=O)[C@]23C(OC(C)=O)C=C[C@@](C)(O)C(=O)[C@@H](C)CC=C[C@H]3[C@@H]1O (some centres not stated)	> 10000	711	1170
Cc1cc(C)cc(NC(=O)c2cc(-c3ccc(Cl)cc3)nc3ccccc23)c1	> 10000	> 716	> 1250
CCOC(=O)c1c(NC(=O)c2cccnc2)sc(C)c1CC	> 10000	> 714	> 1090
O=S(=O)(NCCCCNc1ccnc2cc(Cl)ccc12)c1ccc(F)cc1	> 10000	713	341
CCOc1ccc(N=C2NC(=O)S/C2=C2/C(=O)Nc3ccc(Br)cc32)cc1	> 10000	> 720	> 1250
CCOC(=O)N1CCN(c2ccc(C(F)(F)F)cn2)CC1	> 100000	7180	> 12500
Cc1cccc(C)c1N(CC(=O)NCc1ccco1)S(C)(=O)=O	> 10000	725	851
Cc1oc2c(c1C(=O)NCC1CCCO1)C(=O)c1ccccc1C2=O (configuration not stated)	6930	481	1180
CCc1ccc(NC(=O)CSc2nc(C)cc(C)c2C#N)cc1	> 10000	> 694	> 1250
Cc1cccc(Nc2ccccc2C(=O)OCC(=O)N2CC(=O)Nc3ccccc32)c1C	55100	3820	4710
O=C(Nn1c(SCc2cc(=O)n3ccccc3n2)nc2ccsc2c1=O)c1cccc(Br)c1	> 10000	> 695	> 928
COc1cncc(-c2cncc(N3CCN(CCN(C)C)CC3)n2)c1	> 10000	695	261
CCCNc1nc(OC(C(F)(F)F)C(F)(F)F)nc(OC(C(F)(F)F)C(F)(F)F)n1	> 10000	> 702	> 1580
Cc1c(Cl)cccc1-n1c(C(C)N(CCc2ccccc2)C(=O)COc2ccccc2)nc2ccccc2c1=O (configuration not stated)	> 10000	701	614

SMILES	CC50 [1] [nM]	EC50 [2] [nM]	EC50 [3] [nM]
CCCCCCN(C(=O)c1cccc(F)c1)C(CC)c1nc2ccccc2c(=O)n1-c1ccccc1OC (configuration not stated)	> 7320	509	1070
Fc1ccc2nc(Nc3nc(-c4ccccn4)cs3)sc2c1	3040	216	1260
CCCCCCCC(=O)N1CCN(C(=O)C(NC(=O)Nc2ccc(Cl)cc2Cl)C(C)CC)CC1 (configuration not stated)	> 10000	701	> 40.8
COc1cc(/C=C2/SC(=Nc3ccccc3)NC2=O)ccc1OC(=O)c1ccccc1	> 10000	696	> 933
O=C(Nc1ccc(-c2cn3ccsc3n2)cc1)c1ccc(S(=O)(=O)N2CCCCCC2)cc1	17600	1230	634
CCOc1ccc(CN(C(=O)COc2ccc(Cl)cc2)C(C)CCCN(CC)CC)cc1 (configuration not stated)	18900	1320	387
CC(C)CNc1nc(NCCCn2ccnc2)ncc1C(=O)NCCc1ccccc1	> 10000	696	274
COc1ccc(CCNc2nc(NCCCN3CCCCC3C)ncc2C(=O)NCC(C)C)cc1OC (configuration not stated)	> 10000	> 706	1160
O=C(NCCCN1CCCC1=O)c1cnc(N2CCN(Cc3ccccc3)CC2)nc1NCCc1ccccc1	> 10000	699	572
Cc1ccc(S(=O)(=O)N=C2C=C(Sc3nnc[nH]3)C(=O)c3ccccc32)cc1	12800	901	1560
COc1cc(C(=O)NC(c2ccc3c(c2)OCO3)c2cc(Cl)c3cccnc3c2O)cc(OC)c1OC (configuration not stated)	> 10000	698	428
Clc1cc(C=NNC2=NCCCN2)cc(Cl)n1	> 10000	> 718	247
N#Cc1cc(C#N)c(N2CCN(c3cccc(Cl)n3)CC2)nc1N	> 10000	714	791
CN(C)c1ccc(Nc2nc(NCC3CCCO3)c3ccccc3n2)cc1 (configuration not stated)	11400	805	852
Cc1ccc(CN2C3CCCC2CC(NC(=O)Nc2cccc(F)c2)C3)cc1 (configuration not stated)	> 10000	695	898
CCCN1CCC(N2C[C@@H](NC3CCN(CCc4ccccc4)CC3)C[C@H]2C(=O)NCCc2ccc3c(c2)OCO3)CC1	11100	792	86.8
CCCCNC(=O)C(c1cccc(OC)c1)N1C(=O)c2cc(OCCCC)ccc2NC(=O)C1CO (configuration not stated)	> 2370	168	205
O=C(O)/C=C\C(=O)N(C1CCCCC1)C1CCCCC1	> 10000	> 708	> 1250
CCc1cc(=O)n(C)c(SC(C)C(=O)Nc2ccc(F)cc2)n1 (configuration not stated)	> 10000	729	756
CS(=O)(=O)c1ccccc1S(=O)(=O)N1CCC(NC(=O)c2ccccc2Cl)(C(=O)O)CC1	> 10000	> 725	> 1250
CN=C1S/C(=C\c2ccc(OCC(=O)O)c(OC)c2)C(=O)N1C	> 10000	> 703	> 1250
Nc1c(C(=O)NCc2ccccc2)nnn1Cc1ccc(F)cc1Cl	> 10000	722	> 860
CCCSCCCNC(=O)c1oc2c(c1C)-c1[nH]ncc1CC2	> 10000	> 725	> 1150
O=C(COC(c1ccccc1)c1c(Cl)cncc1Cl)N1CCC(c2ccccn2)C1 (configuration not stated)	> 100000	6960	> 12500
CC(=O)Nc1cc(C(F)(F)F)cc(C(F)(F)F)c1	> 10000	711	1310
Cc1ccc(S(=O)(=O)c2c(COC(=O)c3cccc(C)c3)c(-c3ccccc3)nn2C)cc1	> 100000	6970	8400
O=c1[nH]nc(SCc2c(F)cccc2[N+](=O)[O-])c(=O)[nH]1	> 10000	> 695	> 1250

Source: ChEMBL document CHEMBL1156829 (Proc Natl Acad Sci U S A, 2008)
